# Laboratory results reported in patent US6770261B2, “Magnetic resonance imaging agents for the detection of physiological agents” (Research Corporation Technologies, priority 1995, dated 2004).
# Read-outs that look alike come from different tables or passages of the source.
# Assays:
# β-galactosidase [1] = target: T1, β-galactosidase (Escherichia coli, UniProt P00722); settings: for increase in signal (enhancement) in the presence of β-galactosidase: upon exposure to β-galactosidase
# Procedure: FIG. 9 depicts the change in T1 observed upon the β-galactosidase catalyzed cleavage of the galactopyranose residue (n=3). The first Column of each pair (1,3,5) represents the T1 of the galactose-DOTA complex and β-galactosidase mixture immediately after addition. The second column represents the T1 of the solution after a period of time in the presence of β-galactosidase. Each column is reported as a ratio to a control containing only the complex. Column 1 and 2: 2.0 mM Gd complex plus 1.7 uM β-galactosidase phosphate buffer (25 mM) pH 7.3. Column 3 and 4: 2.0 mM Gd plus 5.1 uM β-galactosidase phosphate buffer (25 mM) pH 7.3. Column 5 and 6: 2 mM Gd complex plus 5.1 uM heat inactivated β-galactosidase (10 minutes at 80 degrees) phosphate buffer (25 mM) pH 7.3. […] A minimal concentration of enzyme was used in these experiments to reduce potential effects of any contrast agent-enzyme interactions. T1 were carried out using a Bruker AMX 500 spectrometer at 26 degrees using a standard inversion-recovery sequence. The solution was placed in a 40 ul round bottomed NMR tube insert (Wilmad glass) and inserted into a tube containing d3-chloroform. A two dimensional data file was collected containing 16 different inversion delays with 8 scans each. The raw nmr data was processed (Felix, BIOSYM/Molecular Simulations, San Diego, Calif.) and the peak heights were fitted to an exponential rise to a max to obtain T1.
# The effect of the enzymatic cleavage of the galactopyranose on the T1 of the complex was assessed using NMR spectroscopy.
# The effect of the enzymatic cleavage of the galactopyranose unit from EGadMe and CarboxyMe on relaxation time T1 was determined by NMR spectroscopy at 500 MHz and 24° C. Various aqueous solutions of 0.5 mM EGadMe and CarboxyMe, respectively, were prepared, containing either: (a) no enzyme; (b) heat inactivated 5 μM β-galactosidase that was treated at 80° C. for 10 min; (c) 5 μM β-galactosidase where T1 was measured immediately after mixing; or (d) 5 μM β-galactosidase that was reacted with the complex for 3.5 days at 37° C.
# β-galactosidase [2] = target: T1, β-galactosidase
# Description: Characterization: The ability of β-galactosidase to remove the galactopyranosal blocking group from GadGal was examined by HPLC. The cleavage reaction was monitored using the distinct retention times of the complex and the complex without the galactopyranose residue.
# [3] = Relaxivity R by NMR spectroscopy at 500 MHz; type: physicochemical; design: unit not given here
# [4] = literature value used for comparison (Lauffer); cited from earlier work
# [5] = for T1: 0.4 mM, 1 mM K2H2EGTA
# Procedure: The effect of Mg^2+ on the relaxivity of the complex
# The T1 of the Gd^3+-complex (0.4 mM in the buffer containing 132 mM KC1, 10 mM MOPS, 1 mM K2H2EGTA, pH 7.20) was measured.
# [6] = for T1: 0.4 mM
# Procedure: The effect of pH on the relaxivity of the complex
# The T1 of the Gd3^+-complex (0.4 mM in the buffer containing 100 mM KC1, 10 mM MOPS, 2 mM K2H2EGTA or 2 mM K2CaEGTA) was measured under different pH.
# [7] = Description: FIG. 16 depicts the relaxivity of the CalGad complex as a function of calcium ion concentration.
# The effect of Ca2^+ on the relaxivity of the complex
# T1 sequence (P00722 2-1024): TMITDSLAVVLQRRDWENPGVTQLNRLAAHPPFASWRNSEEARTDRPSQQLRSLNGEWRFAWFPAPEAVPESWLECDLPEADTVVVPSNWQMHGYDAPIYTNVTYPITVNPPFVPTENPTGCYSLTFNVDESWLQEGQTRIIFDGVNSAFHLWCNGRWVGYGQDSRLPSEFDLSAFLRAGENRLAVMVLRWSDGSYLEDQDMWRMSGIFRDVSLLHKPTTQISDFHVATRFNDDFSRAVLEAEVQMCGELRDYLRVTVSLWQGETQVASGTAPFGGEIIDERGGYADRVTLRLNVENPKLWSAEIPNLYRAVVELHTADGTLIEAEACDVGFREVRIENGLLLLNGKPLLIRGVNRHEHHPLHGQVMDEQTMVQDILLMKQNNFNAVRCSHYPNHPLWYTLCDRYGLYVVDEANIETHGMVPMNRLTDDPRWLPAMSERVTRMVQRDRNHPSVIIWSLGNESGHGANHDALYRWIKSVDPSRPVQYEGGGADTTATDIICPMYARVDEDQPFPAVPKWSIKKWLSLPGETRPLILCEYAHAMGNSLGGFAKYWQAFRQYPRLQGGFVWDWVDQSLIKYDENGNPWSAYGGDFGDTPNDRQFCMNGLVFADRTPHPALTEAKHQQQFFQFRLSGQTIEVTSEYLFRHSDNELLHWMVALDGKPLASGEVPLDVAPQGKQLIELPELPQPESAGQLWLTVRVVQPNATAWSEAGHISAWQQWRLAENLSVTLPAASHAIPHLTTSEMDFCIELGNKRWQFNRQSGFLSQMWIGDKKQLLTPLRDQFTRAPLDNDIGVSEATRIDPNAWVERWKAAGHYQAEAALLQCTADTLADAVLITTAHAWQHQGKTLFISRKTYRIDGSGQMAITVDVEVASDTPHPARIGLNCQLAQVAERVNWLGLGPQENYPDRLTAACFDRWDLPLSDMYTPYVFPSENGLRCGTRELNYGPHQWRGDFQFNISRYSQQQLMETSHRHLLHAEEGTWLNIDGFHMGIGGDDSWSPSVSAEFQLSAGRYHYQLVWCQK
molecule,measurement,setting,value
Do3a-hydroxyethyl-beta-galactose Gadolinium complex [GadGal],difference between measured T1 values in the presence and absence of β-galactosidase,"β-galactosidase [1]; 2.0 mM Gd complex, 1.7 or 5.1 uM β-galactosidase, pH 7.3, 500 MHz",20%
same,change of solution T1 with heat inactivated enzyme,"β-galactosidase [1]; control, heat inactivated β-galactosidase",no decrease
same,increase in signal (enhancement) in the presence of β-galactosidase,β-galactosidase [1]; listed as Example 1 compound,roughly 20%
same,increase in signal (enhancement) in the presence of β-galactosidase,β-galactosidase [1]; listed as galactose-DOTA structure of Example 1,~20%
same,cleavage of galactopyranose (HPLC traces),"β-galactosidase [2]; incubated with β-galactosidase for 7 days, phosphate buffer pH 7.3",greater than 95%
same,enzymatic processing of the complex (HPLC),β-galactosidase [2]; native vs heat-inactivated β-galactosidase,enzymatic processing of the complex by native but not heat-treated enzyme
same,relaxivity R,[3],1800
O=C([O-])CN1CCN(CC(=O)[O-])CCN(CC(=O)O)CCN(CC(=O)[O-])CC1.[Gd+3] [Gd-DOTA],q (number of coordinating water molecules),[4],1.2
"O=C([O-])CN1CCN(CCCOc2cccc(OCCOc3cccc(OCCCN4CCN(CC(=O)[O-])CCN(CC(=O)[O-])CCN(CC(=O)[O-])CC4)c3N(CC(=O)O)CC(=O)O)c2N(CC(=O)O)CC(=O)O)CCN(CC(=O)[O-])CCN(CC(=O)[O-])CC1.[Gd+3].[Gd+3] [CalGad, Gd^3+-BAPTA-DO3A2]",T1,"[5]; pH 7.20, Mg^2+ 0 mM",607 ms
same,T1,"[5]; pH 7.20, Mg^2+ 1 mM",602 ms
same,T1,"[5]; pH 7.20, Mg^2+ 2 mM",601 ms
same,T1,"[5]; pH 7.20, Mg^2+ 5 mM",609 ms
same,T1,"[5]; pH 7.20, Mg^2+ 10 mM",607 ms
same,T1,"[5]; pH 7.20, Mg^2+ 20 mM",610 ms
same,effect of changing Mg^2+ concentration on the relaxivity,[5]; Mg^2+ 0 to 20 mM,minimum effects
same,T1,"[6]; 2 mM K2CaEGTA, pH 6.80",390 ms
same,T1,"[6]; 2 mM K2CaEGTA, pH 7.00",393 ms
same,T1,"[6]; 2 mM K2CaEGTA, pH 7.20",394 ms
same,T1,"[6]; 2 mM K2CaEGTA, pH 7.40",397 ms
same,T1,"[6]; 2 mM K2H2EGTA, pH 6.80",600 ms
same,T1,"[6]; 2 mM K2H2EGTA, pH 7.00",605 ms
same,T1,"[6]; 2 mM K2H2EGTA, pH 7.20",604 ms
same,T1,"[6]; 2 mM K2H2EGTA, pH 7.40",608 ms
same,effect of changing pH on the relaxivity,"[6]; pH 6.80 to 7.40, in the presence or absence of Ca^2+",minimum effects
same,relaxivity R,[7]; in the absence of Ca^2+,3.03 mM⁻¹ s⁻¹
same,relaxivity R,[7]; in the presence of Ca^2+,5.53 mM⁻¹ s⁻¹
